# Results published in BindingDB's records for doi:10.1021/jm00075a032 (University of Bologna, 1993).
# pKi: −log10 of the molar value.
# Experiments:
# [1] = biological target: T1, Muscarinic acetylcholine receptor M2 (Rattus norvegicus, UniProt P10980)
# T1 sequence (P10980 whole entry): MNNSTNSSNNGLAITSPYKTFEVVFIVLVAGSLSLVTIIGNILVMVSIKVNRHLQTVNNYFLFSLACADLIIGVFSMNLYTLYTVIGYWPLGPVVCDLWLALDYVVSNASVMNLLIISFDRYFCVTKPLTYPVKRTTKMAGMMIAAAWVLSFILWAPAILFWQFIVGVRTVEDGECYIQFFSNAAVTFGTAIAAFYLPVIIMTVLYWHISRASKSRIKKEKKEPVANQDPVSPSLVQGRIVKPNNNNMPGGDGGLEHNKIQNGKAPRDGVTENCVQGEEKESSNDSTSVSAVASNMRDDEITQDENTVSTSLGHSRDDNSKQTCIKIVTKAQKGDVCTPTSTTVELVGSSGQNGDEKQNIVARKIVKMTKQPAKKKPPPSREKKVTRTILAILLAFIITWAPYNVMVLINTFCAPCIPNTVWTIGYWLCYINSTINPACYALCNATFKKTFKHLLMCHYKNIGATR
# [2] = biological target: T2, Muscarinic acetylcholine receptor M1 (Rattus norvegicus, UniProt P08482)
# T2 sequence (P08482 whole entry): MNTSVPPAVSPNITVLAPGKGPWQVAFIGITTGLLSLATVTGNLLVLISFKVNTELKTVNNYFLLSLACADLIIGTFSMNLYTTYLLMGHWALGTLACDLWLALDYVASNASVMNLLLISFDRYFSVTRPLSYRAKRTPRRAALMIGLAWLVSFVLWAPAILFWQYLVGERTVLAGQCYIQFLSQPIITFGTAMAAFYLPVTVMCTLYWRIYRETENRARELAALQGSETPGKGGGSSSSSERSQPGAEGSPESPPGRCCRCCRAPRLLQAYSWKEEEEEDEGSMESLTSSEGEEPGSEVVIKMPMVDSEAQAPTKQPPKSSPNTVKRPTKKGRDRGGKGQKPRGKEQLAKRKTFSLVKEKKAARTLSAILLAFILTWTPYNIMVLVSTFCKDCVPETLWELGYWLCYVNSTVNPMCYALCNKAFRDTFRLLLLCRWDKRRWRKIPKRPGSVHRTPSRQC
# [3] = biological target: Muscarinic acetylcholine receptor M3 (Rattus norvegicus, UniProt P08483)
# Muscarinic acetylcholine receptor M3, sequence (P08483 whole entry): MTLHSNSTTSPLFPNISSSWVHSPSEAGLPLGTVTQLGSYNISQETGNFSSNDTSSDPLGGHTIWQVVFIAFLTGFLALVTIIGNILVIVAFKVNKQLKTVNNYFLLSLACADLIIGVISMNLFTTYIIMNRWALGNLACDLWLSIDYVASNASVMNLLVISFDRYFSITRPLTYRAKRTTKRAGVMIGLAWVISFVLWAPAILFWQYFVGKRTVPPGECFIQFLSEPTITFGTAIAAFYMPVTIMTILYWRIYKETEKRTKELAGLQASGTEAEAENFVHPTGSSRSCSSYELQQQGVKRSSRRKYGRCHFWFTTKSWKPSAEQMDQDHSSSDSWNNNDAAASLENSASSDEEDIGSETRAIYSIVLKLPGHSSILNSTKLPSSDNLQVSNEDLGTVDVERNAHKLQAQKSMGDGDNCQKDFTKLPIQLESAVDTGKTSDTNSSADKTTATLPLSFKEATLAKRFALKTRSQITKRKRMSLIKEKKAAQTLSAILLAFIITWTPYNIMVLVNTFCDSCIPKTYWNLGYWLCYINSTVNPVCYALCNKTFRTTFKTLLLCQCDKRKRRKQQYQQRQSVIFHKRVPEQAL
# [4] = biological target: T3, Muscarinic acetylcholine receptor M4 (Rattus norvegicus, UniProt P08485)
# T3 sequence (P08485 whole entry): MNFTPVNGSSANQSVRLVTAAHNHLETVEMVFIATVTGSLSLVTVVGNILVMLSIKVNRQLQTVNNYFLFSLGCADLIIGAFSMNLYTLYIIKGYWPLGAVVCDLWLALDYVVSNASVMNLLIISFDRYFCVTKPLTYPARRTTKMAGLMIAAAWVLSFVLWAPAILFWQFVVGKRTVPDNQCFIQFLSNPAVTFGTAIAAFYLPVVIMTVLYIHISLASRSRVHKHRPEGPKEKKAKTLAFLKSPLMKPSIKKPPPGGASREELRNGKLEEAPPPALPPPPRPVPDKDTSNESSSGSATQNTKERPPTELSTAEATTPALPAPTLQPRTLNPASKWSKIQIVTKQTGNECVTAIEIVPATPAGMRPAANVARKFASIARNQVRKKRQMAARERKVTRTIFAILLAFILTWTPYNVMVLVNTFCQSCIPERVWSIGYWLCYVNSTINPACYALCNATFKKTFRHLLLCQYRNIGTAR
structure (smiles),measurement,setting,value
CN(CCCCCCNCCCCCCCCNCCCCCCN(CN1c2ccccc2C(=O)Nc2cccnc21)CN1c2ccccc2C(=O)Nc2cccnc21)CN1c2ccccc2C(=O)Nc2cccnc21 [methoctramine analog 5],pKi,[1],9.54
same,pKi,[2],7.63
same,pKi,[3],6.19
same,pKi,[4],7.93
